Experimental data as given in article PMC9200625, “Identification and Functional Characterization of Peptides With Antimicrobial Activity From the Syphilis Spirochete, Treponema pallidum” (Frontiers in Microbiology, 2022).
Like-named read-outs stand apart in the source and are kept apart here. Bridge positions count the residues as written; N and C are the ends. Ends that are not written are not given here. Peptide text beside a SMILES is read from it.

Assays:
S. enterica SL1344 = type: cell-based, Salmonella enterica subsp. enterica serovar Typhimurium
Protocol: (§1) Bacterial strains used in this study were: E. coli ATCC 9723H, Pseudomonas aeruginosa ATCC 10148, Staphylococcus aureus ATCC 6538P (penicillin resistant), Streptococcus pyogenes (hospital isolate, strain unknown), Mycobacterium smegmatis MC^2155, N. gonorrhoeae ATCC 700825 (streptomycin resistant), and Salmonella enterica subsp. enterica serovar Typhimurium SL1344 (streptomycin resistant). E. coli, P. aeruginosa, S. aureus, M. smegmatis, and S. enterica were cultured aerobically at 37°C in Mueller Hinton broth (MHB) (Sigma-Aldrich, MO, United States) and on nonselective Mueller Hinton agar (MHA) plates. S. pyogenes was cultured in 5% carbon dioxide at 37°C in MHB supplemented with 5% lysed horse blood (Quad Five, MT, United States) (MHB + 5% HB) and on nonselective MHA plates supplemented with 5% defibrinated sheep blood (Quad Five, MT, United States) (MHA + 5% SB). N. gonorrhoeae was cultured in 5% carbon dioxide at 37°C in gonococcal (GC) chocolate broth medium and on nonselective GC agar plates [GC medium base (BD Difco, MD, United States) supplemented with 1% BBL™ hemoglobin (BD Biosciences, MD, United States) and 1% IsoVitaleX (BD Biosciences, MD, United States)]. Prior to antimicrobial susceptibility assays (as described below), N. gonorrhoeae cultures were subcultured on nonselective GC agar plates (as described above), to ensure bacterial viability. All bacterial stocks were stored in 20% glycerol at –80°C.
(§2) Bacterial suspensions were prepared by transferring bacterial colonies into MHB and resuspending using a vortex mixer to ensure complete suspension of any bacterial aggregates. Turbidity of the colony suspensions was adjusted spectrophotometrically to the required optical densities to achieve a turbidity equivalent to that of a 0.5 McFarland standard (1–2 × 10^8 CFU/mL) followed by dilution in MHB to achieve the standardized microbial inoculum of approximately 5 × 10^5 CFU/mL. Total viable counts (TVC) were routinely performed on all inoculum suspensions to ensure correct bacterial cell densities. […] Plates were incubated at 37°C for 16–24 h and MICs were determined using the unaided eye to identify the lowest concentration of AMP that inhibited visible growth of the tested bacterial species. […] MBCs were determined by plating the entire content of the wells containing the peptide/bacteria mixture representing the MIC and the entire contents of the preceding wells containing two-fold and four-fold more concentrated AMP dilutions onto nonselective agar plates.

E. coli ATCC 9723H = type: cell-based
Protocol: as §1
(§3) Bacterial suspensions were prepared by transferring bacterial colonies into MHB and resuspending using a vortex mixer to ensure complete suspension of any bacterial aggregates. Turbidity of the colony suspensions was adjusted spectrophotometrically to the required optical densities to achieve a turbidity equivalent to that of a 0.5 McFarland standard (1–2 × 10^8 CFU/mL) followed by dilution in MHB to achieve the standardized microbial inoculum of approximately 5 × 10^5 CFU/mL. Total viable counts (TVC) were routinely performed on all inoculum suspensions to ensure correct bacterial cell densities. The standardized bacterial suspensions were then incubated with two-fold serial dilutions of each peptide (dissolved in 11 μL of ultrapure sterile water; final peptide concentration range of 256 μg/mL–0.5 μg/mL) in Greiner polypropylene round bottom 96-well microtiter plates (Sigma-Aldrich, MO, United States). Each peptide was tested once per experiment, with a range of 3–9 independent experiments performed per peptide. Negative growth/sterility control wells contained bacterial growth media (100 μL) and the peptide solvent (11 μL of ultrapure sterile water). Positive growth control wells contained the standardized number of bacterial cells (100 μL of ∼ 5.0 × 10^5 CFU/mL) and peptide solvent (11 μL of ultrapure sterile water). Plates were incubated at 37°C for 16–24 h and MICs were determined using the unaided eye to identify the lowest concentration of AMP that inhibited visible growth of the tested bacterial species. If the sterility control well was turbid, the test was not considered valid. MBCs were determined by plating the entire content of the wells containing the peptide/bacteria mixture representing the MIC and the entire contents of the preceding wells containing two-fold and four-fold more concentrated AMP dilutions onto nonselective agar plates.

[1] = tested on: S. pyogenes Unknown strain; Clinical Isolate; type: cell-based, Streptococcus pyogenes; conditions: for MIC: broth microdilution, cultured in MHB + 5% lysed horse blood, 5% carbon dioxide, ~5 × 10^5 CFU/mL, peptide 256–0.5 μg/mL, 37°C 16–24 h, visible growth
Protocol: as §1, §3

P. aeruginosa ATCC 10148 = type: cell-based, Pseudomonas aeruginosa
Protocol: as §1, §3

M. smegmatis MC^2155 = type: cell-based, Mycobacterium smegmatis
Protocol: as §1, §3

S. aureus ATCC 6538P = type: cell-based, Staphylococcus aureus
Protocol: as §1, §2

[2] = tested on: N. gonorrhoeae ATCC 700825; type: cell-based, Neisseria gonorrhoeae
Protocol: as §1
The potential antimicrobial activity of the T. pallidum peptides against N. gonorrhoeae was determined using a modified agar dilution method. In this assay, N. gonorrhoeae colonies from GC chocolate agar plates were resuspended in MHB and the turbidity of the suspension was adjusted, as described above, to achieve the standardized microbial inoculum of approximately 5 × 10^5 CFU/mL. A two-fold serial dilution of the peptides (11 μL in sterile ultrapure water) was then prepared in wells 1–10 of a 96-well sterile polypropylene plate to obtain a dilution series corresponding to 10 times the required testing concentrations (2,560, 1,280, 640, 320, 160, 80, 40, 20, 10, 5 μg/mL). The bacterial suspension (100 μL) was dispensed into the wells containing the peptides. A negative growth/sterility control (well 12) contained bacterial growth media (100 μL) and the peptide solvent (11 μL of ultrapure sterile water). A positive growth control (well 11) contained the standardized number of bacterial cells (100 μL of ∼ 5.0 × 10^5 CFU/mL) and peptide solvent (11 μL of ultrapure sterile water). The 96-well plate was then incubated at 37°C in an atmosphere of 5% CO2 for 3 h to allow for peptide binding and antimicrobial activity. After the incubation period, an aliquot (20 μL) from wells 1–12 was removed and spotted onto the surface of a GC chocolate agar plate. N. gonorrhoeae spotted plates and TVC plates were incubated at 37°C in an atmosphere of 5% CO2 for 18–24 h. […] To determine the bactericidal activity of peptides, total viable counts (TVCs) were also prepared on GC chocolate agar plates for the 3 h-incubated peptide/bacteria mixtures. These counts were compared with TVCs from the corresponding positive growth wells to give the percentage of bacteria killed by each of the peptides following the 3-h incubation.

[3] = range over 3–9 independent experiments
[4] = wells at MIC, two-fold and four-fold higher plated on nonselective agar, 24 h 37°C, range over 3–9 independent experiments
[5] = broth microdilution in MHB, ~5 × 10^5 CFU/mL, peptide 256–0.5 μg/mL two-fold dilutions, 37°C 16–24 h, visible growth by unaided eye, range over 3–9 independent experiments

Compound | N. gonorrhoeae killing (%) ([2]; ATCC 700825, 3 h, 128 μg/mL) | N. gonorrhoeae killing (%) ([2]; ATCC 700825, 3 h, 256 μg/mL) | N. gonorrhoeae killing (%) ([2]; ATCC 700825, 3 h, 32 μg/mL) | N. gonorrhoeae killing (%) ([2]; ATCC 700825, 3 h, 64 μg/mL) | MIC (M. smegmatis MC^2155; [5]) [µM] | MBC (M. smegmatis MC^2155; [4]) [µM] | MIC (E. coli ATCC 9723H; [5]) [µM] | other results
CC[C@H](C)[C@H](NC(=O)[C@@H](NC(=O)[C@@H]1CCCN1C(=O)[C@H](Cc1ccccc1)NC(=O)[C@@H](N)Cc1ccccc1)[C@@H](C)CC)C(=O)N[C@@H](C)C(=O)N[C@@H](CCCNC(=N)N)C(=O)N[C@@H](CC(C)C)C(=O)N[C@@H](C)C(=O)N[C@@H](C)C(=O)N[C@@H](CCCCN)C(=O)N[C@H](C(=O)N[C@H](C(=O)N1CCC[C@H]1C(=O)N[C@@H](CO)C(=O)N[C@@H](CC(C)C)C(=O)N[C@H](C(=O)N[C@H]1CSSC[C@@H](C(=O)O)NC(=O)[C@H](CCCCN)NC(=O)[C@H](CCCCN)NC(=O)[C@H]([C@@H](C)O)NC(=O)[C@H](C(C)C)NC(=O)[C@H](C)NC1=O)C(C)C)[C@@H](C)CC)C(C)C [RaCa-2] (H-FFPIIARLAAKVIPSLVCAVTKKC-OH; disulfide 18-24; N-terminus and C-terminus assumed) | – | – | – | – | – | – | – | MIC (S. enterica SL1344; SL1344): 6.2 to 49.4 µM; MBC (S. enterica SL1344; SL1344, 24 h): 12.4 to 98.9 µM; MIC (E. coli ATCC 9723H; ATCC 9723): 3.1 to 12.4 µM; MBC (E. coli ATCC 9723H; ATCC 9723, 24 h): 6.2 to 24.7 µM; MBC ([1]; Unknown strain, Clinical Isolate, 24 h): 6.2 to 49.4 µM; MIC (P. aeruginosa ATCC 10148; ATCC 10148): 49.4 to 98.9 µM; MBC (P. aeruginosa ATCC 10148; ATCC 10148, 24 h): ≥98.9 µM; MIC (M. smegmatis MC^2155; MC^2155): 1.5 to 3.1 µM; MBC (M. smegmatis MC^2155; MC^2155, 24 h): 1.5 to 6.2 µM; MIC (S. aureus ATCC 6538P; ATCC 6538): 3.1 to 6.2 µM; MBC (S. aureus ATCC 6538P; ATCC 6538, 24 h): 3.1 to 12.4 µM
CC(C)C[C@H](NC(=O)[C@H](CCC(=O)O)NC(=O)[C@H](CC(N)=O)NC(=O)CNC(=O)[C@H](Cc1ccc(O)cc1)NC(=O)[C@H](CS)NC(=O)[C@H](Cc1c[nH]cn1)NC(=O)[C@H](CC(C)C)NC(=O)[C@H](CO)NC(=O)[C@H](CCCNC(=N)N)NC(=O)[C@H](Cc1c[nH]cn1)NC(=O)[C@H](Cc1ccc(O)cc1)NC(=O)CNC(=O)[C@@H](NC(=O)[C@H](CC(N)=O)NC(=O)[C@H](CS)NC(=O)[C@H](CC(N)=O)NC(=O)[C@H](CS)NC(=O)[C@H](Cc1c[nH]cn1)NC(=O)[C@H](CO)NC(=O)CNC(=O)[C@H](CS)NC(=O)CN)C(C)C)C(=O)N[C@@H](Cc1c[nH]cn1)C(=O)NCC(=O)N[C@@H](CCCCN)C(=O)N[C@@H](CCC(N)=O)C(=O)N[C@@H](CS)C(=O)NCC(=O)N[C@@H](Cc1ccccc1)C(=O)N[C@@H](CO)C(=O)N[C@@H](CCCNC(=N)N)C(=O)N[C@@H](CS)C(=O)NCC(=O)O [Tp0451a_N] (H-GCGSHCNCNVGYHRSLHCYGNELHGKQCGFSRCG-OH) | 0% | 0% | – | – | – | – | – | –
AMRIALWNRATHGEQGALQHLLAG [Tp0751_p5] | 0% | 0% | 0% | 0% | – | – | – | –
IGRARAITHTWGIWCRWGKVWRRS [Tp0451a_C] | 94.4–100% | 97.6–100% | 0–93.0% | 90.5–100% | 1.4 to 2.7 | 1.4 to 5.4 | – | MIC [1, 3]: 5.4 to 10.8 µM; MBC [1, 4]: 5.4 to 43.3 µM
IGRARAITHTWGIWSRWGKVWRRS [Tp0451a_C_C85S] | 0% | 0% | 0% | 0% | 5.4 | 10.9 | 10.9 to 21.8 | MBC (E. coli ATCC 9723H; [4]): 10.9 to 43.6 µM; MIC [1, 3]: 5.4 to 10.9 µM; MBC [1, 4]: 10.9 to 43.6 µM
KGIVAERILKPCVRRKVNGKFRS [Tp0749_C] | 0% | 0% | – | – | 1.5 to 3.0 | 1.5 to 3.0 | 12.0 | MBC (E. coli ATCC 9723H; [4]): 48.2 to 96.4 µM; MIC (P. aeruginosa ATCC 10148; [5]): 24.1 to 48.2 µM; MBC (P. aeruginosa ATCC 10148; [4]): 96.4 µM
KGIVAERILKPSVRRKVNGKFRS [Tp0749_C_C61S] | 0% | 0% | – | – | 12.1 to 24.2 | 24.2 to 48.5 | 24.2 to 48.5 | MIC (P. aeruginosa ATCC 10148; [5]): 97.0 µM
PFMQVITWARLYHKNQKRYEKIKK [Tp0749_N] | 0% | 0% | – | – | 0.3 to 1.3 | 1.3 | – | –
RSLEGTDRFPFVRLKNSRKLEFKDIKGIKREQFVKIL [sLL-37] | – | – | – | – | – | – | – | MIC (P. aeruginosa ATCC 10148; ATCC 10148): ≥57 µM; MIC (M. smegmatis MC^2155; MC^2155): 14.2 to 28.5 µM; MBC (M. smegmatis MC^2155; MC^2155, 24 h): ≥57 µM; N. gonorrhoeae killing (%) ([2]; peptide 32 μg/mL, 3-h incubation 37°C 5% CO2, TVCs versus positive growth control, all of three to six independent experiments): 0%; N. gonorrhoeae killing (%) ([2]; peptide 64 μg/mL, 3-h incubation 37°C 5% CO2, TVCs versus positive growth control, all of three to six independent experiments): 0%; N. gonorrhoeae killing (%) ([2]; peptide 128 μg/mL, 3-h incubation 37°C 5% CO2, TVCs versus positive growth control, all of three to six independent experiments): 0%; N. gonorrhoeae killing (%) ([2]; peptide 256 μg/mL, 3-h incubation 37°C 5% CO2, TVCs versus positive growth control, all of three to six independent experiments): 0%
